Experimental data as given in ChEMBL document CHEMBL5725801, “Fused heterocyclic compounds as CaM kinase inhibitors” (2018).
Where “and” joins values, the source holds several entries; their conditions need not be identical. Equal values may be shown once.

Assay: CaMKII Cell-Based Activity: CaMKII activity in neonatal rat ventricular myocytes (NRVM) was measured by monitoring the phosphorylation level of phospholamban using high-content imaging. NRVMs were plated in a clear bottom 384-well plate in medium supplemented with 10% fetal bovine serum (FBS) and incubated at 37° C., 5% CO2 overnight. The medium was changed to a serum-free medium and compounds were dosed to the cells. The cells were incubated at 37° C., 5% CO2 for 4 hours and were then treated with 100 nM ATX-II (Alomone Labs) to activate CaMKII. 10 minutes after the addition of ATX-II, the cells were fixed with 4% formaldehyde followed by permeabilization with 0.1% triton X100. The fixed cells were stained with an anti-phospho-phospholamban primary antibody (Santa Cruz Biotechnology) and an Alexa488-labeled anti-rabbit IgG secondary antibody (Life Technologies Corporation) as well as Hoechst 33342 (Life Technologies Corporation). The cells were imaged using an ArrayScan VTI (Cellomics) and analyzed for cells containing a positive fluorescent signal at 485 nm, reported as % responder. The % responders were plotted against the compound concentration to determine the compounds EC50.

Row | Compound | EC50
1 | CCCN[C@@H](C)CNC(=O)c1ccnc(-c2cnn3ccc(-c4cccs4)nc23)c1 | 65.2 nM
2 | CCN(CC)[C@@H](C)CNC(=O)c1cc(-c2cnn3ccc(-c4cccs4)nc23)nc(C(C)C)c1 | 80.4 nM
3 | CC[C@]1(CNC(=O)c2ccnc(-c3cnn4ccc(-c5ccccc5)nc34)c2)CCCN1 | 143 nM
4 | CCN(CC)[C@@H](C)CNC(=O)c1cc(-c2cnn3ccc(-c4cccs4)nc23)nc(N2CCC[C@H]2C(N)=O)c1 | 259 nM
5 | CCN(CC)[C@@H](C)CNC(=O)c1cc(-c2cnn3ccc(-c4cccs4)nc23)nc(N2CCn3ccnc3C2)c1 | 121 nM
6 | N[C@H]1C[C@@H]2CCC[C@H]1N2C(=O)c1ccnc(-c2cnn3ccc(-c4ccccc4)nc23)c1 | 74 nM
7 | NC[C@H]1CCCCN1C(=O)c1cc(-c2cnn3ccc(-c4ccccc4)nc23)nc(C(F)(F)F)c1 | 65.2 nM
8 | CCN(CC)[C@@H](C)CNC(=O)c1cc(-c2cnn3ccc(-c4cccs4)nc23)nc(N2CC(F)(F)C(F)(F)C2)c1 | 61.5 nM
9 | CCN(CC)[C@@H](C)CNC(=O)c1cc(-c2cnn3ccc(-c4ccns4)nc23)nc(N2CC(OC)C2)c1 | 13.9 nM
10 | CCN(CC)C(CNC(=O)c1ccnc(-c2cnn3ccc(-c4ccccc4)nc23)c1)C(C)C (stereo not drawn) | 37.2 nM
11 | CCN(CC)[C@@H](C)CNC(=O)c1cc(-c2cnn3ccc(-c4cccs4)nc23)nc(N2CCNC2=O)c1 | 150 nM
12 | CCC[C@@]1(CNC(=O)c2ccnc(-c3cnn4ccc(-c5cccs5)nc34)c2)CCCN1 | 99.2 nM
13 | CCN(CC)[C@@H](C)CNC(=O)c1cc(OCC(C)(C)O)nc(-c2cnn3ccc(-c4cccs4)nc23)c1 | 38.4 nM
14 | CCN1CCC[C@H]1CNC(=O)c1cc(-c2cnn3ccc(-c4cccs4)nc23)nc(N2CC(OC)C2)c1 | 181 nM
15 | N[C@@H](CO)CNC(=O)c1ccnc(-c2cnn3ccc(-c4ccccc4)nc23)c1 | 334 nM
16 | CCN[C@@H](C)CNC(=O)c1cc(-c2cnn3ccc(-c4ccccc4)nc23)nc(C2CC2)c1 | 15.3 nM
17 | C[C@H](N)CNC(=O)c1ccnc(-c2cnn3ccc(-c4cccs4)nc23)c1 | 62.2 nM
18 | CCN(CC)CCNC(=O)c1ccnc(-c2cnn3ccc(-c4cccs4)nc23)c1 | 17.1 nM
19 | CN(C)c1cc(C(=O)N2CCCC[C@H]2CN)cc(-c2cnn3ccc(-c4ccccc4)nc23)n1 | 418 nM
20 | Nc1cc(C(=O)N2C3CCNCC2CC3)cc(-c2cnn3ccc(-c4cccs4)nc23)n1 (stereo not drawn) | 111 nM
21 | COC1CN(c2cc(C(=O)N3CC[C@H](N)C3)cc(-c3cnn4ccc(-c5ccccc5)nc34)n2)C1 | 42.9 nM
22 | CCN(CC)[C@@H](C)CNC(=O)c1cc(-c2cnn3ccc(-c4cccs4)nc23)nc(N2CC[C@H]2C(=O)N(C)O)c1 | 25.6 nM
23 | CCN(CC)[C@@H](C)CNC(=O)c1cc(-c2cnn3ccc(-c4cccs4)nc23)nc(N2CC[C@H](C(=O)NC)C2)c1 | 69.3 nM
24 | CCN[C@@H](C)CNC(=O)c1cc(-c2cnn3ccc(-c4ccccc4)nc23)nc(N2CC(OC)C2)c1 | 145 nM
25 | CCN(CC)[C@@H](C)CNC(=O)c1cc(-c2cnn3ccc(-c4cccs4)nc23)nc(N2CC(NS(C)(=O)=O)C2)c1 | 26.4 nM
26 | CCN(CC)[C@@H](C)CNC(=O)c1cc(-c2cnn3ccc(-c4cccs4)nc23)nc(N2CCC23COC3)c1 | 54.5 nM

Row | Compound | EC50
27 | COC1CN(c2cc(C(=O)N3CC4CCC(C3)NC4)cc(-c3cnn4ccc(-c5ccccc5)nc34)n2)C1 (stereo not drawn) | 95.6 nM
28 | CCC(N)CNC(=O)c1ccnc(-c2cnn3ccc(-c4ccccc4)nc23)c1 (stereo not drawn) | 80.9 nM
29 | CCN(CCN)C(=O)c1ccnc(-c2cnn3ccc(-c4ccccc4)nc23)c1 | 169 nM
30 | CCN[C@@H](CO)CNC(=O)c1ccnc(-c2cnn3ccc(-c4ccccc4)nc23)c1 | 243 nM
31 | CCN(CC)[C@@H](C)CNC(=O)c1cc(-c2cnn3ccc(-c4ccns4)nc23)nc(N2CC[C@H]2C(=O)NC)c1 | 32.7 nM
32 | CCN(CC)[C@@H](C)CNC(=O)c1cc(-c2cnn3ccc(-c4cccs4)nc23)nc(N2CC[C@H]2C(=O)NCCOC)c1 | 47.1 nM
33 | C[C@@H](CNC(=O)c1ccnc(-c2cnn3ccc(-c4cccs4)nc23)c1)NCC(F)F | 443 nM and 149 nM
34 | CCN(CC)[C@@H](C)CNC(=O)c1cc(NCCC(C)(C)O)nc(-c2cnn3ccc(-c4cccs4)nc23)c1 | 22.3 nM
35 | CCN(CC)[C@@H](C)CNC(=O)c1cc(-c2cnn3ccc(-c4cccs4)nc23)nc(N2CC(S(=O)(=O)NC)C2)c1 | 50.5 nM
36 | CCN(CC)[C@@H](C)CNC(=O)c1cc(-c2cnn3ccc(-c4cccs4)nc23)nc(N2CC[C@@H]2COC)c1 | 80.1 nM
37 | CCN(CC)[C@@H](C)CNC(=O)c1cc(-c2c[nH]nc2C(F)(F)F)nc(-c2cnn3ccc(-c4cccs4)nc23)c1 | 20.3 nM
38 | CCN(CC)[C@@H](C)CNC(=O)c1cc(-c2cnn3ccc(-c4cccs4)nc23)nc(N2CC(NC)C2)c1 | 69.9 nM
39 | CCN(CC)[C@@H](C)CNC(=O)c1cncc(-c2cnn3ccc(-c4cccs4)nc23)c1 | 22 nM
40 | O=C(c1ccnc(-c2cnn3ccc(-c4cccs4)nc23)c1)N1CCC[C@@H]2CCNC[C@@H]21 | 80.8 nM
41 | O=C(NCC1CCCCCN1)c1ccnc(-c2cnn3ccc(-c4cccs4)nc23)c1 (stereo not drawn) | 347 nM
42 | CCN(CC)[C@@H](C)CNC(=O)c1cc(-c2cnn3ccc(-c4cncnc4)nc23)nc(N2CC(OC)C2)c1 | 519 nM
43 | CCN(CC)[C@@H](C)CNC(=O)c1cc(NCCN(C)C)nc(-c2cnn3ccc(-c4ccccc4)nc23)c1 | 31.9 nM
44 | CCN(CC)[C@@H](C)CNC(=O)c1cc(-c2cnn3ccc(-c4cccs4)nc23)nc(N2C[C@H](O)[C@@H](O)C2)c1 | 250 nM
45 | CCN(CC)[C@@H](C)CNC(=O)c1cc(-c2cnn3ccc(-c4cccs4)nc23)nc(N2CC[C@H]2C(=O)NCC(F)(F)F)c1 | 41.6 nM
46 | CCN(CC)[C@@H](C)CNC(=O)c1cc(-c2cnn3ccc(-c4cccs4)nc23)nc(N2CCC[C@H]2C(=O)NC)c1 | 114 nM
47 | CCN(CC)[C@@H](C)CNC(=O)c1cc(-c2cnn3ccc(-c4cccs4)nc23)nc(N2CC(C#N)C2)c1 | 9.07 nM
48 | COC1CN(c2cc(C(=O)N3CC[C@H](N)C3)cc(-c3cnn4ccc(-c5cccs5)nc34)n2)C1 | 154 nM
49 | Cc1cnc(-c2cnn3ccc(-c4ccccc4)nc23)cc1C(=O)N1CCCC[C@@H]1[C@@H](C)N | 66.4 nM
50 | CCN(CC)[C@@H](C)CNC(=O)c1cc(-c2cnn3ccc(-c4cccs4)nc23)nc(N2CC(NC(C)=O)C2)c1 | 28.4 nM
51 | CCNC(CC)CNC(=O)c1ccnc(-c2cnn3ccc(-c4ccccc4)nc23)c1 (stereo not drawn) | 46.8 nM
52 | CCN(CC)[C@@H](C)CNC(=O)c1cc(-c2cnn3ccc(-c4cccs4)nc23)nc(N2CCNCC2)c1 | 67 nM

Row | Compound | EC50
53 | CC[C@@]1(CNC(=O)c2ccnc(-c3cnn4ccc(-c5ccccc5)nc34)c2)CCCN1 | 279 nM
54 | CCN(CC)[C@@H](C)CNC(=O)c1cc(-c2cnn3ccc(-c4cccs4)nc23)nc(-c2cnn3ccc(-c4cccs4)nc23)c1 | 794 nM
55 | CCN(CC)[C@@H](C)CNC(=O)c1cc(-c2cnn3ccc(-c4cccs4)nc23)nc(N2CC[C@H]2COC)c1 | 78.4 nM
56 | CCN(CC)[C@@H](C)CNC(=O)c1cc(N[C@H](C)CO)nc(-c2cnn3ccc(-c4cccs4)nc23)c1 | 75.2 nM
57 | CCN(CC)[C@@H](C)CNC(=O)c1cc(OC[C@H]2CCCO2)nc(-c2cnn3ccc(-c4cccs4)nc23)c1 | 27.8 nM
58 | CCN(CC)[C@@H](C)CNC(=O)c1cc(-c2cnn3ccc(-c4cccs4)nc23)nc(N2CC[C@H]2C(=O)NCCO)c1 | 84.9 nM
59 | CC[C@@]1(CNC(=O)c2ccnc(-c3cnn4ccc(-c5cccs5)nc34)c2)CCCN1 | 129 nM
60 | CCN(CC)[C@@H](C)CNC(=O)c1cc(-c2cnn3ccc(-c4cccs4)nc23)nc(N2CC[C@H]2C(=O)N2CC(C)(C)C2)c1 | 79 nM
61 | CCN(CC)[C@@H](C)CNC(=O)c1cc(-c2cnn3ccc(-c4cccs4)nc23)nc(N2CC(N(C)C)C2)c1 | 168 nM
62 | CCN(CC)[C@@H](C)CNC(=O)c1cc(-c2cnn3ccc(-c4cccs4)nc23)nc(N2CCC[C@@H]2C(=O)NC)c1 | 815 nM
63 | CCN(CC)[C@@H](C)CNC(=O)c1cc(-c2cnn3ccc(-c4cccs4)nc23)nc(N2CCC[C@@H]2COC)c1 | 260 nM
64 | CCN(CC)[C@@H](C)CNC(=O)c1cc(-c2cnn3ccc(-c4cccs4)nc23)nc(N2CC[C@H]2C(=O)N2CC(S(C)(=O)=O)C2)c1 | 281 nM
65 | CCN(CC)[C@@H](C)CNC(=O)c1cc(OCc2ccc[n+]([O-])c2)nc(-c2cnn3ccc(-c4cccs4)nc23)c1 | 68.5 nM
66 | COC1CN(c2cc(C(=O)N3C4CC[C@@H]3CCNC4)cc(-c3cnn4ccc(-c5ccccc5)nc34)n2)C1 | 272 nM
67 | CCN(CC)[C@@H](C)CNC(=O)c1cc(-c2cnn3ccc(-c4cccs4)nc23)nc(N2CC[C@H]2C(=O)Nc2nccs2)c1 | 127 nM
68 | CCN(CC)[C@@H](C)CNC(=O)c1cc(NCC(=O)NC)nc(-c2cnn3ccc(-c4cccs4)nc23)c1 | 108 nM
69 | CCN(CC)[C@@H](C)CNC(=O)c1cc(-c2cnn3ccc(-c4cccs4)nc23)nc(N2CC[C@H]2C(=O)N2CCOCC2)c1 | 21.3 nM
70 | CCN(CC)[C@@H](C)CNC(=O)c1cc(O[C@H]2CCOC2)nc(-c2cnn3ccc(-c4cccs4)nc23)c1 | 57.1 nM
71 | CC(C)(O)CNc1cc(C(=O)N2CC3CCC(C2)NC3)cc(-c2cnn3ccc(-c4cccs4)nc23)n1 (stereo not drawn) | 406 nM
72 | CCN(CC)[C@@H](C)CNC(=O)c1cc(NCC(N)=O)nc(-c2cnn3ccc(-c4cccs4)nc23)c1 | 306 nM
73 | CCN[C@@H](C)CNC(=O)c1cc(CC)nc(-c2cnn3ccc(-c4ccccc4)nc23)c1 | 170 nM
74 | CCN(CC)[C@@H](C)CNC(=O)c1cc(OCCN2CCOCC2)nc(-c2cnn3ccc(-c4cccs4)nc23)c1 | 86.8 nM
75 | CCN(CC)[C@@H](C)CNC(=O)c1cc(-c2cnn3ccc(-c4cccs4)nc23)nc(N2CC(NS(=O)(=O)CC)C2)c1 | 25.7 nM
76 | CC(C)NC(CNC(=O)c1ccnc(-c2cnn3ccc(-c4ccccc4)nc23)c1)C(C)C (stereo not drawn) | 152 nM
77 | CN(C)CCNC(=O)c1ccnc(-c2cnn3ccc(-c4cccs4)nc23)c1 | 116 nM
78 | CCC(CNC(=O)c1cc(-c2cnn3ccc(-c4cccs4)nc23)nc(N2CC[C@H]2C(=O)NC)c1)N(CC)CC (stereo partly drawn) | 36.8 nM
